# Read-outs that look alike come from different tables or passages of the source.
# Legend:
# [1] = set-up: method as in Newmeyer et al., 2016; details: ref Newmeyer et al., 2016, cited from earlier work
# [2] = Phase I pharmacokinetic profile: blood concentration vs time by HPLC-MS/MS after a single 10 mg/kg dose; assay type: in vivo, C57BL/6Crl mice; details: for k (terminal phase rate constant): noncompartmental
# Protocol: In phase I, male mice were randomly assigned to Groups A, B, C, or D. Interventions per group are specified in Figure 2. Each group was divided into 3 cohorts and randomly assigned to receive p.o., i.p., or i.v. administration. Oral (p.o.) administration cohorts received 10 mg/kg CBG in olive oil with 10% DMSO, and i.p. and i.v. cohorts received 10 mg/kg CBG with 10% DMSO and vehicle (1:1:18 ethanol: kolliphor: saline). PK profiles were developed for blood collection at 10 min, 30 min, 1 h, 3 h, 6 h, 12 h, 18 h, and 24 h. Blood collection was performed using a destructive sampling method, with each mouse providing blood at two time point collections. The initial blood draw aimed to obtain a 100 µL blood sample from the left leg lateral saphenous vein of the mouse, and the second blood draw from the same mouse involved the administration of isoflurane (3%–5%) followed by exsanguination via cardiac puncture. Group A was subjected to two time point blood draws, at 10 min and at 30 min. Groups B-D were first subjected to the cannabinoid-induced tetrad assay, then two time point blood draws. Due to time constraints, the open field test (OFT) was not performed in Phase I.
# Blood collection from the saphenous leg vein was drawn into a RAM Scientific Safe-T-Fill™ Capillary blood collection system containing heparin and lithium (Waltham, Massachusetts, U.S). Blood collection from the cardiac puncture was drawn into a syringe and transferred to a 2 mL blood collection tube containing heparin and lithium. Samples were immediately placed on ice, transferred to LoBind® tubes as quickly as possible, and then stored at −80 °C. The blood concentrations of CBG were determined using High-Performance Liquid Chromatography-Tandem Mass Spectrometry (HPLC-MS/MS).
# The PK parameters for CBG were determined by GraphPad Prism (v. 10.2.3). Linear regression analysis natural log of the concentration versus time curve was utilized to derive the terminal phase rate constant (k), from which the terminal phase half-life (t1/2) was calculated using the ratio (0.693/k). For both p.o. and i.p. administration, the Cmax was obtained directly from visual inspection of the blood concentration versus time profiles. For the purposes of this study, Tmax refers to the time at which Cmax was reported. The log-linear trapezoidal method was used to calculate the total area under the curve (AUC) of the average blood concentrations versus time profile with extrapolation to infinity, where the tail of the AUC (i.e., last concentration extrapolated to infinity) was calculated as the ratio Cp,last/k. Bioavailability was estimated by dividing the mean total AUC∞ for each route of administration by the total AUC observed for each compound following i.v. administration (where F = 100%, by definition). Systemic clearance (ClS) was calculated as the ratio Dose i.v. /AUC ∞ . The apparent volume of distribution (Vd) was calculated as Dose i.v. /(k × AUC ∞ ).
# HPLC-MS/MS was used to quantify CBG in the blood using a 1,260 Agilent (Agilent Technologies Canada, Mississauga, ON) High Performance Liquid Chromatography (HPLC) system connected to an AB Sciex 4,000 Hybrid Triple Quadruple Linear Ion Trap Mass Spectrometer (QTRAP) equipped with a Turboionspray™ interface (AB Sciex, Concord, ON). The analytical method was developed and validated for mouse blood. An Infinity lab Phenyl Hexyl column (4.6 × 12.5 mm, 5 μm) and guard column (4.6 × 12.5 mm, 5 μm) were used to separate compounds, and the temperature was set to 50 °C.
# [3] = set-up: method as in Deiana et al., 2012; details: ref Deiana et al., 2012, cited from earlier work
# [4] = tested on: C57BL/6Crl mice; assay: Cannabinoid tetrad: catalepsy in the ring holding assay; assay type: in vivo; details: for ED50: Mus musculus, iv
# [5] = 10 mg/kg i.v., male mice, blood
# [6] = C57BL/6Crl, mouse, whole blood, ip, 10 mg/kg i.p., male mice, blood
# [7] = C57BL/6Crl, mouse, whole blood, iv, 10 mg/kg i.v., male mice, blood
# [8] = C57BL/6Crl, mouse, whole blood, po, 10 mg/kg p.o., male mice, blood
smiles,measurement,setting,value
"CCCCCc1cc(O)c(C/C=C(\C)CCC=C(C)C)c(O)c1 [CBG, cannabigerol]",detection in blood after oral cannabis,[1]; cannabis administered orally,not detected
same,time CBG was detected after smoking,[1]; frequent cannabis smokers,up to 17 min
same,time CBG was detected following vaporization,[1]; frequent cannabis smokers,up to 13 min
same,p.o. Cmax as percent of i.p. Cmax,"[2]; 10 mg/kg CBG, male mice",2%
same,k (terminal phase rate constant),"[2]; 10 mg/kg i.p., male mice, blood",0.069 h⁻¹
same,α,[2]; [5],1.016 h⁻¹
same,k (terminal phase rate constant),[2]; [5],0.0698 h⁻¹
same,AUC(0-inf),[2]; [6],1170 ng·h/mL
same,Cmax,[2]; [6],516 ng/mL
same,Tmax,[2]; [6],0.5 h
same,half-life,[2]; [6],10 h
same,AUC(0-inf),[2]; [7],2800 ng·h/mL
same,half-life,[2]; [7],9.9 h
same,clearance,"[2]; C57BL/6Crl, mouse, whole blood, iv, 10 mg/kg i.v., male mice, read-out: ClS (systemic clearance)",59.4 mL/min/kg
same,Vd,"[2]; C57BL/6Crl, mouse, whole blood, iv, 10 mg/kg i.v., male mice, read-out: Vd (apparent volume of distribution)",51.1 L/kg
same,Cmax,[2]; [8],10.5 ng/mL
same,Tmax,[2]; [8],3 h
same,concentration at 10 min,"[2]; male, C57BL/6Crl, mouse, whole blood, iv, 10 mg/kg, i.v., males, read-out: C at 10 min (blood concentration 10 min post-administration)",2840 ng/mL
same,time to peak plasma concentration (Tmax),[3]; i.p.,2 h
same,time to peak plasma concentration (Tmax),[3]; p.o.,0.5 h
same,"catalepsy, mean % MPE","[4]; 10 mg/kg i.p., 20 min post-injection, male and female mice, MPE = 60 s",5.4% ± 2.5%
same,cataleptic response,"[4]; 10 mg/kg i.v., i.p. and p.o., male mice, 5 min post-injection",did not produce a cataleptic response
same,"catalepsy, dose-response","[4]; 1, 3, 10 or 30 mg/kg i.v., male and female mice","produced a modest effect but only at the highest dose tested, 30 mg/kg"
same,ED50,"[4]; 5 min, i.v., both sexes, 5 min post-administration, read-out: ED50 catalepsy",> 30 mg/kg
same,ED50,"[4]; both sexes, three-parameter nonlinear regression, read-out: ED50 catalepsy, estimate exceeding the dose range (square brackets)",> 30 mg/kg
same,ED50,"[4]; males, read-out: ED50 catalepsy",> 30 mg/kg
same,"Intoxication ratio, catalepsy","[4]; THC potency/CBG potency corrected for blood concentration at 10 min, both sexes",0.23
same,"intoxication relative to THC, catalepsy","[4]; accounting for blood concentrations measured at 10 min, i.v.",23%
same,"Intoxication ratio, catalepsy",[4]; females,0.28
same,ED50 catalepsy,"[4]; i.v., females",> 30 mg/kg
same,"Intoxication ratio, catalepsy",[4]; males,0.17

# From publication PMC12722920, “Pharmacokinetics and pharmacodynamics of cannabigerol (CBG) in the C57BL/6Crl mouse” (Frontiers in Pharmacology, 2025)
